Assay results published in ChEMBL document CHEMBL1201862, “PubChem BioAssay data set” (2004).
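Following 48 hours of exposure in 96-well plates, responses at five concentrations were used to interpolate endpoints linearly. At the GI50, growth is halved.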 Active and inactive are the calls of the source. Rule as the data show it: active = GI50 up to about 1.1 µM and inactive = higher.

How the values were obtained:
Experiment in all cases: inhibition of tumour cell growth, NCI panel, 48 h
NCI/ADR-RES = test system: NCI/ADR-RES
MDA-MB-231 = test system: MDA-MB-231
SNB-19 = test system: SNB-19
OVCAR-8 = test system: OVCAR-8
SK-MEL-28 = test system: SK-MEL-28
RXF 393 = test system: RXF 393
PC-3 = test system: PC-3
SNB-75 = test system: SNB-75
DU-145 = test system: DU-145
SR = test system: SR
Malme-3M = test system: Malme-3M
OVCAR-4 = test system: OVCAR-4
CAKI-1 = test system: CAKI-1
MCF7 = test system: MCF7
SK-MEL-5 = test system: SK-MEL-5
UACC-62 = test system: UACC-62
NCI-H23 = test system: NCI-H23
HL-60 = test system: HL-60
MDA-MB-435 = test system: MDA-MB-435
SF-295 = test system: SF-295
CCRF-CEM = test system: CCRF-CEM
786-0 = test system: 786-0
HCT-116 = test system: HCT-116
SK-MEL-2 = test system: SK-MEL-2
ACHN = test system: ACHN
U-251 = test system: U-251
T47D = test system: T47D
SW-620 = test system: SW-620
IGROV-1 = test system: IGROV-1
BT-549 = test system: BT-549
HOP-62 = test system: HOP-62
RPMI-8226 = test system: RPMI-8226
HOP-92 = test system: HOP-92
TK-10 = test system: TK-10
HCT-15 = test system: HCT-15
A549 = test system: A549
HCC 2998 = test system: HCC 2998
UO-31 = test system: UO-31
NCI-H522 = test system: NCI-H522
MDA-N = test system: MDA-N
KM12 = test system: KM12
UACC-257 = test system: UACC-257
Hs-578T = test system: Hs-578T
LOX IMVI = test system: LOX IMVI
K562 = test system: K562
EKVX = test system: EKVX
OVCAR-3 = test system: OVCAR-3
SN12C = test system: SN12C
M14 = test system: M14
SF-268 = test system: SF-268
A498 = test system: A498
OVCAR-5 = test system: OVCAR-5
HT-29 = test system: HT-29
SF-539 = test system: SF-539
COLO 205 = test system: COLO 205
MOLT-4 = test system: MOLT-4
NCI-H460 = test system: NCI-H460
SK-OV-3 = test system: SK-OV-3
NCI-H226 = test system: NCI-H226

Q: With CC1=NN(C(=O)CC(=O)Nc2ccc(C)cc2)C(=O)C1/N=N/c1ccc(C(=O)O)cc1 (configuration not stated) as the compound, how does the GI50 (NCI/ADR-RES) read?
A: > 100 µM (inactive)

Q: What about the GI50 (MDA-MB-231) of the same compound?
A: > 100 µM (inactive)

Q: And the GI50 (SNB-19)?
A: > 100 µM (inactive)

Q: And the GI50 (OVCAR-8)?
A: > 100 µM (inactive)

Q: And the GI50 (SK-MEL-28)?
A: > 100 µM (inactive)

Q: And the GI50 (RXF 393)?
A: > 100 µM (inactive)

Q: And the GI50 (PC-3)?
A: > 100 µM (inactive)

Q: And the GI50 (SNB-75)?
A: > 100 µM (inactive)

Q: What about the GI50 (DU-145) of the same compound?
A: > 100 µM (inactive)

Q: What about the GI50 (SR) of the same compound?
A: 78.5 µM (inactive)

Q: And the GI50 (Malme-3M)?
A: > 100 µM (inactive)

Q: And the GI50 (OVCAR-4)?
A: > 100 µM (inactive)

Q: What about the GI50 (CAKI-1) of the same compound?
A: > 100 µM (inactive)

Q: What about the GI50 (MCF7) of the same compound?
A: > 100 µM (inactive)

Q: And the GI50 (SK-MEL-5)?
A: > 100 µM (inactive)

Q: What about the GI50 (UACC-62) of the same compound?
A: > 100 µM (inactive)

Q: And the GI50 (NCI-H23)?
A: > 100 µM (inactive)

Q: What about the GI50 (HL-60) of the same compound?
A: > 100 µM (inactive)

Q: What about the GI50 (MDA-MB-435) of the same compound?
A: > 100 µM (inactive)

Q: What about the GI50 (SF-295) of the same compound?
A: > 100 µM (inactive)

Q: What about the GI50 (CCRF-CEM) of the same compound?
A: > 100 µM (inactive)

Q: What about the GI50 (786-0) of the same compound?
A: > 100 µM (inactive)

Q: What about the GI50 (HCT-116) of the same compound?
A: > 100 µM (inactive)

Q: What about the GI50 (SK-MEL-2) of the same compound?
A: > 100 µM (inactive)

Q: What about the GI50 (ACHN) of the same compound?
A: > 100 µM (inactive)

Q: What about the GI50 (U-251) of the same compound?
A: > 100 µM (inactive)

Q: And the GI50 (T47D)?
A: > 100 µM (inactive)

Q: What about the GI50 (SW-620) of the same compound?
A: > 100 µM (inactive)

Q: What about the GI50 (IGROV-1) of the same compound?
A: > 100 µM (inactive)

Q: What about the GI50 (BT-549) of the same compound?
A: > 100 µM (inactive)

Q: What about the GI50 (HOP-62) of the same compound?
A: > 100 µM (inactive)

Q: What about the GI50 (RPMI-8226) of the same compound?
A: > 100 µM (inactive)

Q: And the GI50 (HOP-92)?
A: > 100 µM (inactive)

Q: What about the GI50 (TK-10) of the same compound?
A: > 100 µM (inactive)

Q: What about the GI50 (HCT-15) of the same compound?
A: > 100 µM

Q: And the GI50 (A549)?
A: > 100 µM (inactive)

Q: What about the GI50 (HCC 2998) of the same compound?
A: > 100 µM (inactive)

Q: And the GI50 (UO-31)?
A: 55.8 µM (inactive)

Q: What about the GI50 (NCI-H522) of the same compound?
A: > 100 µM (inactive)

Q: What about the GI50 (MDA-N) of the same compound?
A: > 100 µM (inactive)

Q: What about the GI50 (KM12) of the same compound?
A: > 100 µM (inactive)

Q: And the GI50 (UACC-257)?
A: > 100 µM (inactive)

Q: And the GI50 (Hs-578T)?
A: 85.7 µM (inactive)

Q: What about the GI50 (LOX IMVI) of the same compound?
A: 69.3 µM (inactive)

Q: What about the GI50 (K562) of the same compound?
A: > 100 µM (inactive)

Q: What about the GI50 (EKVX) of the same compound?
A: > 100 µM (inactive)

Q: And the GI50 (OVCAR-3)?
A: > 100 µM (inactive)

Q: What about the GI50 (SN12C) of the same compound?
A: > 100 µM (inactive)

Q: What about the GI50 (M14) of the same compound?
A: > 100 µM (inactive)

Q: What about the GI50 (SF-268) of the same compound?
A: > 100 µM (inactive)

Q: And the GI50 (A498)?
A: > 100 µM (inactive)

Q: What about the GI50 (OVCAR-5) of the same compound?
A: > 100 µM (inactive)

Q: What about the GI50 (HT-29) of the same compound?
A: > 100 µM (inactive)

Q: What about the GI50 (SF-539) of the same compound?
A: > 100 µM (inactive)

Q: What about the GI50 (COLO 205) of the same compound?
A: > 100 µM (inactive)

Q: For CCCCc1ccc(Nc2nc3c(ncn3C3OC(COC(C)=O)C(OC(C)=O)C3OC(C)=O)c(=O)[nH]2)cc1 (configuration not stated), which GI50 (NCI/ADR-RES) is on record?
A: > 100 µM (inactive)

Q: What about the GI50 (MDA-MB-231) of the same compound?
A: 16.7 µM (inactive)

Q: And the GI50 (SNB-19)?
A: 27.7 µM (inactive)

Q: What about the GI50 (OVCAR-8) of the same compound?
A: 18.4 µM (inactive)

Q: What about the GI50 (RXF 393) of the same compound?
A: 19.1 µM (inactive)

Q: And the GI50 (PC-3)?
A: 19.7 µM (inactive)

Q: And the GI50 (DU-145)?
A: 31.3 µM (inactive)

Q: And the GI50 (MOLT-4)?
A: 18.7 µM (inactive)

Q: And the GI50 (NCI-H460)?
A: 18.3 µM (inactive)

Q: And the GI50 (SR)?
A: 13.5 µM (inactive)

Q: What about the GI50 (Malme-3M) of the same compound?
A: 19.4 µM (inactive)

Q: And the GI50 (OVCAR-4)?
A: 21.9 µM (inactive)

Q: What about the GI50 (CAKI-1) of the same compound?
A: > 100 µM (inactive)

Q: And the GI50 (MCF7)?
A: 23 µM (inactive)

Q: What about the GI50 (SK-MEL-5) of the same compound?
A: 17.4 µM (inactive)

Q: What about the GI50 (UACC-62) of the same compound?
A: 19 µM (inactive)

Q: And the GI50 (NCI-H23)?
A: 17.4 µM (inactive)

Q: What about the GI50 (HL-60) of the same compound?
A: 26.2 µM (inactive)

Q: What about the GI50 (MDA-MB-435) of the same compound?
A: 19.9 µM (inactive)

Q: And the GI50 (SF-295)?
A: 21.2 µM (inactive)

Q: And the GI50 (CCRF-CEM)?
A: 16.3 µM (inactive)

Q: What about the GI50 (786-0) of the same compound?
A: 17.2 µM (inactive)

Q: What about the GI50 (HCT-116) of the same compound?
A: 17.1 µM (inactive)

Q: What about the GI50 (SK-MEL-2) of the same compound?
A: 15.7 µM (inactive)

Q: What about the GI50 (ACHN) of the same compound?
A: 65 µM (inactive)

Q: What about the GI50 (U-251) of the same compound?
A: 21 µM (inactive)

Q: And the GI50 (T47D)?
A: 13.7 µM (inactive)

Q: What about the GI50 (SW-620) of the same compound?
A: 25.1 µM (inactive)

Q: And the GI50 (IGROV-1)?
A: 17.5 µM (inactive)

Q: And the GI50 (SK-OV-3)?
A: 27 µM (inactive)

Q: And the GI50 (BT-549)?
A: 17.8 µM (inactive)

Q: What about the GI50 (HOP-62) of the same compound?
A: 17.8 µM (inactive)

Q: What about the GI50 (RPMI-8226) of the same compound?
A: 20.4 µM (inactive)

Q: And the GI50 (HOP-92)?
A: 16.1 µM (inactive)

Q: And the GI50 (TK-10)?
A: 45.3 µM (inactive)

Q: And the GI50 (HCT-15)?
A: > 100 µM

Q: And the GI50 (A549)?
A: 92.7 µM (inactive)

Q: What about the GI50 (HCC 2998) of the same compound?
A: 20.7 µM (inactive)

Q: And the GI50 (UO-31)?
A: > 100 µM (inactive)

Q: And the GI50 (NCI-H522)?
A: 18 µM (inactive)

Q: What about the GI50 (MDA-N) of the same compound?
A: 19.5 µM (inactive)

Q: And the GI50 (KM12)?
A: 18.4 µM (inactive)

Q: And the GI50 (UACC-257)?
A: 18.9 µM (inactive)

Q: And the GI50 (Hs-578T)?
A: 22.9 µM (inactive)

Q: And the GI50 (LOX IMVI)?
A: 18.5 µM (inactive)

Q: What about the GI50 (K562) of the same compound?
A: 15.1 µM (inactive)

Q: What about the GI50 (EKVX) of the same compound?
A: 36.7 µM (inactive)

Q: What about the GI50 (OVCAR-3) of the same compound?
A: 15.3 µM (inactive)

Q: And the GI50 (NCI-H226)?
A: 21.1 µM (inactive)

Q: And the GI50 (SN12C)?
A: 24.2 µM (inactive)

Q: And the GI50 (M14)?
A: 20.6 µM (inactive)

Q: And the GI50 (SF-268)?
A: 19.4 µM (inactive)

Q: And the GI50 (A498)?
A: > 100 µM (inactive)

Q: What about the GI50 (OVCAR-5) of the same compound?
A: 79.6 µM (inactive)

Q: And the GI50 (HT-29)?
A: 19.1 µM (inactive)

Q: What about the GI50 (SF-539) of the same compound?
A: 26.2 µM (inactive)

Q: What about the GI50 (COLO 205) of the same compound?
A: 17.6 µM (inactive)
